Among the data in DBAASP are MIC values, retold here.

Values after ≈ are worked out from the molar mass of the structure shown. Values joined by “and” are separate entries in the source; they are usually repeats but may differ in a detail not shown here. Equal values may be shown once. Some results are limits rather than exact numbers.

Test systems include Escherichia coli 078; Escherichia coli ER2566; Escherichia coli UB1005; Escherichia coli K88; Staphylococcus aureus MR; Enterococcus faecalis A4; Escherichia coli O157:H7; Citrobacter freundii; Klebsiella oxytoca; Escherichia coli NDM-1; Enterococcus faecalis; Morganella morganii; Enterobacter cloacae.
What all share (assay): ≥ marks a high value that may be exact or a test limit, other limits are often not marked, values filed in µg/mL are converted to µM
Experiment [1] relates to Bacillus subtilis ATCC 11060.
The test system of experiment [2] is Staphylococcus epidermidis ATCC 12228.
Experiment [3] has as its system Escherichia coli ATCC 25922.
For experiment [4], the system named is Pseudomonas aeruginosa ATCC 21630.
Experiment [5] has as its system Enterococcus faecalis ATCC 29212.
Experiment [6] has as its system Escherichia coli CVCC 1515.
In experiment [7] the test system is Salmonella enterica subsp. enterica serovar Pullorum C79-13.
In experiment [8] the test system is Escherichia coli CMCC 44102.
The subject of experiment [9] is Staphylococcus aureus ATCC 25923.
Experiment [10] concerns Pseudomonas aeruginosa ATCC 21625.
For experiment [11], the system named is Staphylococcus aureus ATCC 29213.
In experiment [12] the test system is Pseudomonas aeruginosa ATCC 10419.
For experiment [13], the system named is Salmonella enterica subsp. enterica serovar Typhimurium ATCC 14028.
Experiment [14] relates to Pseudomonas aeruginosa ATCC 27853.
Experiment [15] relates to Salmonella enterica subsp. enterica serovar Typhimurium C77-31.
Experiment [16] concerns Pseudomonas aeruginosa PAO1.
The subject of experiment [17] is Enterococcus faecalis 1F-1.
Experiment [18] concerns Enterococcus faecium 4W-9.
The test system of experiment [19] is Bacillus amyloliquefaciens ATCC 23842.
Experiment [20] has as its system Bacillus licheniformis ATCC 14580.
Experiment [21] has as its system Proteus mirabilis ATCC 35659.
Experiment [22] relates to Bacillus cereus ATCC 14579.
For experiment [23], the system named is Bacillus subtilis ATCC 6051.
The test system of experiment [24] is Enterococcus faecium 5F-10.
For experiment [25], the system named is Staphylococcus aureus 215.
Experiment [26] relates to Salmonella enterica ATCC H9812.
Experiment [27] concerns Salmonella typhimurium PY1.
Experiment [28] has as its system Pseudomonas aeruginosa ATCC 15692.
In experiment [29] the test system is Staphylococcus aureus ATCC 1717.
Experiment [30] relates to Klebsiella pneumoniae NDM-1.
The subject of experiment [31] is Bacillus subtilis ATCC 23857.
In experiment [32] the test system is Staphylococcus epidermidis KCTC 1917.
Experiment [33] has as its system Salmonella typhimurium KCTC 1926.
Experiment [34] deals with Staphylococcus aureus KCTC 1621.
Experiment [35] relates to Staphylococcus aureus CCARM 3089.
In experiment [36] the test system is Enterococcus faecium ATCC 51559.
In experiment [37] the test system is Pseudomonas aeruginosa KCTC 1637.
Experiment [38] deals with Bacillus subtilis KCTC 3068.
In experiment [39] the test system is Staphylococcus aureus CCARM 3095.
In experiment [40] the test system is Staphylococcus aureus CCARM 3090.
Experiment [41] has as its system Pseudomonas aeruginosa CCARM 2095.
Experiment [42] has as its system Escherichia coli KCTC 1682.

The MIC is the lowest concentration found to suppress growth. In the case of `CC[C@H](C)[C@H](NC(=O)[C@H](CCCCN)NC(=O)[C@H](CCCN=C(N)N)NC(=O)[C@H](CC(C)C)NC(=O)[C@H](Cc1ccccc1)NC(=O)[C@H](CCCN=C(N)N)NC(=O)CNC(=O)[C@H](Cc1ccccc1)NC(=O)[C@@H](N)CCCN=C(N)N)C(=O)N[C@@H](CCCN=C(N)N)C(=O)N[C@@H](CCCN=C(N)N)C(=O)N[C@@H](Cc1ccccc1)C(=O)N[C@@H](CCCN=C(N)N)C(=O)N1CCC[C@H]1C(=O)N[C@@H](CCCCN)C(=O)N[C@H](C(=O)N[C@H](C(=O)N[C@H](C(=O)N[C@H](C(=O)N[C@H](C(=O)N[C@@H](CCC(N)=O)C(=O)NCC(=O)N[C@@H](CO)C(=O)N[C@@H](C)C(=O)N[C@@H](CCCN=C(N)N)C(=O)N[C@@H](Cc1ccccc1)C(=O)NCC(N)=O)[C@@H](C)CC)[C@@H](C)O)[C@@H](C)CC)[C@@H](C)O)C(C)C` [RFGRFLRKIRRFRPKVTITIQGSARFG], the MIC is 16 µM (≈ 52.2 µg/mL) in experiment [1]; 16 µM (≈ 52.2 µg/mL) in [2]; 7.99 µM (≈ 26.1 µg/mL) in the experiment with Escherichia coli 078; 1.99 µM and 3.83 µM in experiment [3]; 7.99 µM (≈ 26.1 µg/mL) in [4]; 16 µM (≈ 52.2 µg/mL) in experiment [5]. Further, the MIC was 7.99 µM (≈ 26.1 µg/mL) in experiment [6]; 4.01 µM (≈ 13.1 µg/mL) in experiment [7]; 1.01 µM (≈ 3.3 µg/mL) in experiment [8]; 0.49 µM (≈ 1.6 µg/mL) in the experiment on Escherichia coli ER2566; 1.01 µM (≈ 3.3 µg/mL) against Escherichia coli UB1005; 1.01 µM (≈ 3.3 µg/mL) in experiment [9]. For the same compound, the minimum inhibitory concentration (MIC) came to 1.99 µM (≈ 6.5 µg/mL) in experiment [10]; 1.99 µM (≈ 6.5 µg/mL) in the experiment on Escherichia coli K88; 1.99 µM (≈ 6.5 µg/mL) in experiment [11]; 4.01 µM (≈ 13.1 µg/mL) in experiment [12]; 4.01 µM (≈ 13.1 µg/mL) in experiment [13]; 1.99 µM (≈ 6.5 µg/mL) in experiment [14]. In experiment [15], this compound showed an MIC of 4.01 µM (≈ 13.1 µg/mL).
For the compound `CC(C)C[C@H](NC(=O)[C@H](CC(C)C)NC(=O)[C@@H](N)CCC(=O)O)C(=O)N[C@@H](CO)C(=O)N[C@@H](CCCN=C(N)N)C(=O)N[C@H](C(=O)N[C@@H](CC(=O)O)C(=O)O)C(C)C` [ELLSRVD], the MIC in experiment [16] was more than 154 µM; in [17], not below 154 µM; in experiment [18], not below 154 µM; in experiment [19], not below 77 µM; in experiment [3], more than 154 µM; in [20], not below 77 µM. The MIC is not below 154 µM in experiment [21]; not below 77 µM in experiment [22]; not below 77 µM in experiment [23]; not below 154 µM in experiment [24]; 4.81 µM (≈ 4 µg/mL) in experiment [25]; not below 154 µM in experiment [26]. For the same compound, the results for the minimum inhibitory concentration (MIC) (in experiment [11]; in the experiment with Staphylococcus aureus MR; with Enterococcus faecalis A4) were 4.81 µM (≈ 4 µg/mL), 3.4 µM (≈ 2.83 µg/mL) and not below 154 µM, respectively.
In the case of `CC[C@H](C)[C@H](NC(=O)CN)C(=O)N[C@H](C(=O)N[C@@H](C)C(=O)NCC(=O)N[C@H](C(=O)N[C@H](C(=O)N[C@H](C(=O)N[C@@H](CCCCN)C(=O)N[C@H](C(=O)N[C@@H](CCCCN)C(=O)N[C@@H](CCCCN)C(N)=O)[C@@H](C)CC)[C@@H](C)CC)[C@@H](C)CC)[C@@H](C)CC)[C@@H](C)CC` [GIIAGIIIKIKK], the MIC in experiment [27] is not below 64 µM; against Escherichia coli O157:H7, not below 32 µM; against Citrobacter freundii it was 8 µM (≈ 10.1 µg/mL); in experiment [28], not below 64 µM; in experiment [29], not below 128 µM; against Klebsiella oxytoca, 16 µM (≈ 20.3 µg/mL). Also, the MIC in the experiment on Escherichia coli NDM-1 is 16 µM (≈ 20.3 µg/mL); against Enterococcus faecalis, 16 µM (≈ 20.3 µg/mL); against Morganella morganii, not below 128 µM; in the experiment on Enterobacter cloacae it was 22.6 µM (≈ 28.6 µg/mL); in experiment [30] it was 22.6 µM (≈ 28.6 µg/mL); in experiment [31], 8 µM (≈ 10.1 µg/mL).
Regarding `CC[C@H](C)[C@H](NC(=O)[C@@H](NC(=O)[C@H](Cc1cnc[nH]1)NC(=O)[C@H](CCCN=C(N)N)NC(=O)[C@H](C)NC(=O)[C@H](CCCN=C(N)N)NC(=O)[C@H](CC(C)C)NC(=O)[C@H](CO)NC(=O)[C@H](C)NC(=O)[C@H](CO)NC(=O)[C@H](CC(C)C)NC(=O)[C@@H](N)CC(N)=O)[C@@H](C)O)C(=O)N1CCC[C@H]1C(=O)N[C@@H](CCC(N)=O)C(=O)N[C@@H](CO)C(=O)N[C@@H](CCCN=C(N)N)C(=O)N[C@@H](CCCCN)C(=O)N[C@@H](Cc1ccccc1)C(=O)NCC(=O)N[C@@H](CCCN=C(N)N)C(=O)N[C@@H](CCCN=C(N)N)C(=O)O` [NLSASLRARHTIPQSRKFGRR], the MIC in experiment [32] was 6.3 µM (≈ 15.4 µg/mL); in experiment [33], 6.3 µM (≈ 15.4 µg/mL); in [34] it was 12.5 µM (≈ 30.6 µg/mL); in experiment [35] it was 25 µM (≈ 61.3 µg/mL); in experiment [36], not below 50 µM; in experiment [37], 6.3 µM (≈ 15.4 µg/mL). For the same compound, the MIC is 12.5 µM (≈ 30.6 µg/mL) in experiment [38]; 25 µM (≈ 61.3 µg/mL) in experiment [39]; not below 50 µM in experiment [40]; 12.5 µM (≈ 30.6 µg/mL) in experiment [41]; 6.3 µM (≈ 15.4 µg/mL) in experiment [42].
